From US12139520B2 (priority 2020, dated 2024)
Bridge positions count the residues as written; N and C are the ends. Square brackets hold non-standard residues; d marks the D form. Peptide text beside a SMILES is read from it. Hyp = O=C(O)[C@@H]1C[C@@H](O)CN1; Cit = NC(=O)NCCC[C@H](N)C(=O)O

Assays:
[1] = Physical stability of peptide analogues (Thioflavin T fibrillation); assay type: physicochemical; conditions: maximum ThT signal normalized between hAMY maximum and buffer background; 40° C., shaking, four days; pH 7 per table title
Summary of the method: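 Maximum ThT emission at 480 nm, after LOESS smoothing, is given as percent of the span from buffer background to hAMY. Conditions: 50 mM buffer at pH 4 or 7, 4 μM dye, 40 °C, repeated shaking, readings every 10 min for four days.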

[2] = molecular target: T1, hAMY3 receptor (Homo sapiens, UniProt O60896+P30988); test: cAMP assay for in vitro receptor activation, hAMY3-R; assay type: cell-based; conditions: cAMP assay, hAMY3 receptor; read-out: hAMY3R EC50
T1 sequence (P30988 25-474): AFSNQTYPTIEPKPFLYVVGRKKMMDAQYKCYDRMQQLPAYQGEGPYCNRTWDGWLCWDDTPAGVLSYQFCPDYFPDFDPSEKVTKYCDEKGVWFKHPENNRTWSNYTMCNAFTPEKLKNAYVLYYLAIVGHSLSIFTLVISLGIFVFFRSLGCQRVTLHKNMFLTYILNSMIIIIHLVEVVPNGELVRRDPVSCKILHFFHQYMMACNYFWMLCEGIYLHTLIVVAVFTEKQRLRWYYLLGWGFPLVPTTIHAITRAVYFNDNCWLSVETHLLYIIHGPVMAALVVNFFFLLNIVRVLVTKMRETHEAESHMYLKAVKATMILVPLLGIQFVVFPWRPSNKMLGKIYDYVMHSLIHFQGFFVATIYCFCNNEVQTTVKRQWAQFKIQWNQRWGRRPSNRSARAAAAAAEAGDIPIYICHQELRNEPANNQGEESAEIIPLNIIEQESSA
T1 sequence (O60896 24-148 partner): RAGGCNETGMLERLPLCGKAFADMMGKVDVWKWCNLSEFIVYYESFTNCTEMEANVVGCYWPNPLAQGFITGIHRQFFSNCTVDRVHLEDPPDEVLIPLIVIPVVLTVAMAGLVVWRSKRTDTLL
Summary of the method: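 Read-out is TR-FRET cAMP signal, recorded one hour after reagent addition, following 30 min room-temperature stimulation of stable hAMY3 cells with graded compound doses in casein/IBMX (0.5 mM) buffer.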

SMILES	Max ThT signal (%) [1] [%]	EC50 [2] [nM]
CC[C@H](C)[C@H](NC(=O)[C@H](CCC(N)=O)NC(=O)[C@H](Cc1c[nH]cn1)NC(=O)[C@H](C)NC(=O)[C@H](CC(C)C)NC(=O)[C@H](CCCNC(N)=O)NC(=O)[C@H](CCC(N)=O)NC(=O)[C@@H](NC(=O)[C@@H](NC(=O)[C@@H]1CSSC[C@H](NC(=O)[C@@H](N)CCCCN)C(=O)N[C@@H](CC(N)=O)C(=O)N[C@@H]([C@@H](C)O)C(=O)N[C@@H](C)C(=O)N[C@@H]([C@@H](C)O)C(=O)N1)[C@@H](C)O)C(C)C)C(=O)N[C@@H](Cc1ccc(O)cc1)C(=O)N[C@@H](CCC(N)=O)C(=O)N[C@@H](Cc1ccccc1)C(=O)N[C@H](C(=O)N[C@@H](CC(=O)O)C(=O)N[C@@H](CCCCN)C(=O)N[C@@H](CC(=O)O)C(=O)N[C@@H](CCCCN)C(=O)N[C@@H](CC(=O)O)C(=O)N[C@@H](CC(N)=O)C(=O)N[C@H](C(=O)N[C@@H](C)C(=O)N1CCC[C@H]1C(=O)N[C@@H](CCCNC(=N)N)C(=O)N[C@H](C(=O)N[C@@H](CCCCN)C(=O)N[C@H](C(=O)NCC(=O)N[C@@H](CO)C(=O)N[C@@H](CC(N)=O)C(=O)NCC(=O)N[C@@H](Cc1ccc(O)cc1)C(N)=O)C(C)C)[C@@H](C)O)C(C)C)[C@@H](C)O [compound 257] (H-KCNTATCTVQ[Cit]LAHQIYQFTDKDKDNVAPRTKVGSNGY-NH2; disulfide 2-7; N-terminus assumed)	20.950	0.016
CC[C@H](C)[C@H](NC(=O)[C@H](CCC(N)=O)NC(=O)[C@H](Cc1c[nH]cn1)NC(=O)[C@H](C)NC(=O)[C@H](CC(C)C)NC(=O)[C@H](CCCNC(=N)N)NC(=O)[C@H](CCC(N)=O)NC(=O)[C@@H](NC(=O)[C@@H](NC(=O)[C@@H]1CSSC[C@H](NC(=O)CN)C(=O)N[C@@H](CCCNC(=N)N)C(=O)N[C@@H](Cc2ccccc2)C(=O)NCC(=O)N[C@@H]([C@@H](C)O)C(=O)N1)[C@@H](C)O)C(C)C)C(=O)N[C@@H](Cc1ccc(O)cc1)C(=O)N[C@@H](CCC(N)=O)C(=O)N[C@@H](Cc1ccccc1)C(=O)N[C@H](C(=O)N[C@@H](CC(=O)O)C(=O)N[C@@H](CCCCN)C(=O)N[C@@H](CC(=O)O)C(=O)N[C@@H](CCCCN)C(=O)N[C@@H](CC(=O)O)C(=O)N[C@@H](CC(N)=O)C(=O)N[C@H](C(=O)N[C@@H](C)C(=O)N1CCC[C@H]1C(=O)N[C@@H](CCCNC(=N)N)C(=O)N[C@@H](CO)C(=O)N[C@@H](CCCCN)C(=O)N[C@H](C(=O)N[C@@H](CO)C(=O)N1CCC[C@H]1C(=O)N[C@@H](CCC(N)=O)C(=O)NCC(=O)N1C[C@H](O)C[C@H]1C(N)=O)C(C)C)C(C)C)[C@@H](C)O [compound 167] (H-GCRFGTCTVQRLAHQIYQFTDKDKDNVAPRSKVSPQG[Hyp]-NH2; disulfide 2-7; N-terminus assumed)	6.600	0.056
CC[C@H](C)[C@H](NC(=O)[C@H](CCC(N)=O)NC(=O)[C@H](Cc1c[nH]cn1)NC(=O)[C@H](C)NC(=O)[C@H](CC(C)C)NC(=O)[C@H](CCCNC(=N)N)NC(=O)[C@H](CCC(N)=O)NC(=O)[C@@H](NC(=O)[C@@H](NC(=O)[C@@H]1CSSC[C@H](NC(=O)[C@@H](N)CCCCN)C(=O)N[C@@H](CCCNC(=N)N)C(=O)N[C@@H](Cc2ccccc2)C(=O)NCC(=O)N[C@@H]([C@@H](C)O)C(=O)N1)[C@@H](C)O)C(C)C)C(=O)N[C@@H](Cc1ccc(O)cc1)C(=O)N[C@@H](CCC(N)=O)C(=O)N[C@@H](Cc1ccccc1)C(=O)N[C@H](C(=O)N[C@@H](CC(=O)O)C(=O)N[C@@H](CCCCN)C(=O)N[C@@H](CC(=O)O)C(=O)N[C@@H](CCCCN)C(=O)N[C@@H](CC(=O)O)C(=O)N[C@@H](CC(N)=O)C(=O)N[C@H](C(=O)N[C@@H](C)C(=O)N1CCC[C@H]1C(=O)N[C@@H](CCCNC(=N)N)C(=O)N[C@@H](CO)C(=O)N[C@@H](CCCCN)C(=O)N[C@H](C(=O)N[C@@H](CO)C(=O)N1CCC[C@H]1C(=O)N[C@@H](CCC(N)=O)C(=O)N[C@H](C(=O)N1C[C@H](O)C[C@H]1C(N)=O)[C@@H](C)O)[C@@H](C)CC)C(C)C)[C@@H](C)O [compound 205] (H-KCRFGTCTVQRLAHQIYQFTDKDKDNVAPRSKISPQT[Hyp]-NH2; disulfide 2-7; N-terminus assumed)	7.800	0.13
CC[C@H](C)[C@H](NC(=O)[C@H](CCC(N)=O)NC(=O)[C@H](Cc1c[nH]cn1)NC(=O)[C@H](C)NC(=O)[C@H](CC(C)C)NC(=O)[C@H](CCCNC(=N)N)NC(=O)[C@H](CCC(N)=O)NC(=O)[C@@H](NC(=O)[C@@H](NC(=O)[C@@H]1CSSC[C@H](NC(=O)CN)C(=O)N[C@@H](CCCNC(=N)N)C(=O)N[C@@H](Cc2ccccc2)C(=O)NCC(=O)N[C@@H]([C@@H](C)O)C(=O)N1)[C@@H](C)O)C(C)C)C(=O)N[C@@H](Cc1ccc(O)cc1)C(=O)N[C@@H](CCC(N)=O)C(=O)N[C@@H](Cc1ccccc1)C(=O)N[C@H](C(=O)N[C@@H](CC(=O)O)C(=O)N[C@@H](CCCCN)C(=O)N[C@@H](CC(=O)O)C(=O)N[C@@H](CCCCN)C(=O)N[C@@H](CC(=O)O)C(=O)N[C@@H](CC(N)=O)C(=O)N[C@H](C(=O)N[C@@H](C)C(=O)N1CCC[C@H]1C(=O)N[C@@H](CCCNC(=N)N)C(=O)N[C@H](C(=O)N[C@@H](CC(N)=O)C(=O)N[C@H](C(=O)NCC(=O)N1CCC[C@H]1C(=O)N[C@@H](CCC(N)=O)C(=O)NCC(=O)N[C@@H](Cc1ccc(O)cc1)C(N)=O)C(C)C)[C@@H](C)O)C(C)C)[C@@H](C)O [compound 362] (H-GCRFGTCTVQRLAHQIYQFTDKDKDNVAPRTNVGPQGY-NH2; disulfide 2-7)	8.900	0.007
CC[C@H](C)[C@H](NC(=O)[C@H](CCC(N)=O)NC(=O)[C@H](Cc1c[nH]cn1)NC(=O)[C@H](C)NC(=O)[C@H](CC(C)C)NC(=O)[C@H](CCCNC(=N)N)NC(=O)[C@H](CCC(N)=O)NC(=O)[C@@H](NC(=O)[C@@H](NC(=O)[C@@H]1CSSC[C@H](NC(=O)CN)C(=O)N[C@@H](CCCNC(=N)N)C(=O)N[C@@H](Cc2ccccc2)C(=O)NCC(=O)N[C@@H]([C@@H](C)O)C(=O)N1)[C@@H](C)O)C(C)C)C(=O)N[C@@H](Cc1ccc(O)cc1)C(=O)N[C@@H](CCC(N)=O)C(=O)N[C@@H](Cc1ccccc1)C(=O)N[C@H](C(=O)N[C@@H](CC(=O)O)C(=O)N[C@@H](CCCCN)C(=O)N[C@@H](CC(=O)O)C(=O)N[C@@H](CCCCN)C(=O)N[C@@H](CC(=O)O)C(=O)N[C@@H](CC(N)=O)C(=O)N[C@H](C(=O)N[C@@H](C)C(=O)N1CCC[C@H]1C(=O)N[C@@H](CCCNC(=N)N)C(=O)N[C@@H](CO)C(=O)N[C@@H](CC(N)=O)C(=O)N[C@H](C(=O)NCC(=O)N1CCC[C@H]1C(=O)N[C@@H](CC(N)=O)C(=O)NCC(=O)N[C@@H](Cc1ccc(O)cc1)C(N)=O)C(C)C)C(C)C)[C@@H](C)O [compound 373] (H-GCRFGTCTVQRLAHQIYQFTDKDKDNVAPRSNVGPNGY-NH2; disulfide 2-7; N-terminus assumed)	18.000	0.02
CC[C@H](C)[C@H](NC(=O)[C@H](CCC(N)=O)NC(=O)[C@H](Cc1c[nH]cn1)NC(=O)[C@H](C)NC(=O)[C@H](CC(C)C)NC(=O)[C@H](CCCNC(=N)N)NC(=O)[C@H](CCC(N)=O)NC(=O)[C@@H](NC(=O)[C@@H](NC(=O)[C@@H]1CSSC[C@H](NC(=O)CN)C(=O)N[C@@H](CCCNC(=N)N)C(=O)N[C@@H]([C@@H](C)O)C(=O)NCC(=O)N[C@@H]([C@@H](C)O)C(=O)N1)[C@@H](C)O)C(C)C)C(=O)N[C@@H](Cc1ccc(O)cc1)C(=O)N[C@@H](CCC(N)=O)C(=O)N[C@@H](Cc1ccccc1)C(=O)N[C@H](C(=O)N[C@@H](CC(=O)O)C(=O)N[C@@H](CCCCN)C(=O)N[C@@H](CC(=O)O)C(=O)N[C@@H](CCCCN)C(=O)N[C@@H](CC(=O)O)C(=O)N[C@@H](CC(N)=O)C(=O)N[C@H](C(=O)N[C@@H](C)C(=O)N1CCC[C@H]1C(=O)N[C@@H](CCCNC(=N)N)C(=O)N[C@H](C(=O)N[C@@H](CC(N)=O)C(=O)N[C@H](C(=O)NCC(=O)N1CCC[C@H]1C(=O)N[C@@H](CC(N)=O)C(=O)NCC(=O)N[C@@H](Cc1ccc(O)cc1)C(N)=O)C(C)C)[C@@H](C)O)C(C)C)[C@@H](C)O [compound 84] (H-GCRTGTCTVQRLAHQIYQFTDKDKDNVAPRTNVGPNGY-NH2; disulfide 2-7; N-terminus assumed)	14.200	0.015
